2 compounds from patent US20100113457A1, “NOVEL PYRIDAZINE DERIVATIVES” (SYNGENTA CROP PROTECTION, INC., priority 2006, published 2010) can be followed below.

For orientation: inhibition means how much of the control response was suppressed. Usually melting point stands for the temperature of the solid-liquid transition.

Series [1] deals with Prenophora Teres (Helminthosporium Teres). Briefly: Pyrenophora teres / barley / preventive (net blotch). To be noted: 96 h, spray, barley plants cv. Regina, assessed 4 days after inoculation, read-out: inhibition of fungal infestation. It counts as in vivo. Here is the method:
Prenophora Teres (Helminthosporium Teres)/Barley/Preventive (Action Against Net Blotch on Barley) 1-week-old barley plants cv. Regina are treated with the formulated test compound in a spray chamber. Two days after application barley plants are inoculated by spraying a spore suspension (2.6×10^4 conidia/ml) on the test plants. After an incubation period of 4 days at 20° C. and 95% r. h. the disease incidence is assessed.

A further series deals with Uncinula Necator. Briefly: Uncinula necator / grape / preventive (powdery mildew). To be noted: Erysiphe necator, 168 h, spray, grape seedlings cv. Gutedel, assessed 7 days after inoculation, read-out: inhibition of fungal infestation. It counts as in vivo. The method, then: Uncinula Necator/Drape/Preventive (Action Against Powdery Mildew on Grape) 5 weeks old grape seedlings cv. Gutedel are treated with the formulated test compound in a spray chamber. One day after application grape plants are inoculated by shaking plants infected with grape powdery mildew above the test plants. After an incubation period of 7 days at 24° C./22° C. and 70% r. h. under a light regime of 14/10 h (light/dark) the disease incidence is assessed.

A further series concerns Puccinia Recondita. Briefly: Puccinia recondita / wheat / preventive (brown rust). It counts as in vivo. Conditions: 264 h, spray, wheat plants cv. Arina, assessed 11 days after inoculation, read-out: inhibition of fungal infestation. The method, then:
Puccinia Recondita/Wheat/Preventive (Action Against Brown Rust on Wheat) 1 week old wheat plants cv. Arina are treated with the formulated test compound in a spray chamber. One day after application wheat plants are inoculated by spraying a spore suspension ([…] uredospores/ml) on the test plants. After an incubation period of 1 day at 20° C. and 95% r. h. plants are kept for 10 days 20° C./18° C. (day/night) and 60% r.h. in a greenhouse. The disease incidence is assessed 11 days after inoculation.

In series [2] the test system is Magnaporthe Grisea (Pyricularia oryzae). Nature of the series: whole plant or invertebrate. Type of series: in vivo. Conditions: 144 h, read-out: inhibition of fungal infestation.
In the next series the test system is Alternaria Solani. Nature of the series: Alternaria solani / tomato / preventive. Type of series: in vivo. Conditions: 96 h, spray, tomato plants cv. Roter Gnom, assessed 4 days after inoculation, read-out: inhibition of fungal infestation. The method, then: Alternaria Solani/Tomato/Preventive (Action Against Alternaria on Tomato) 4 weeks old tomato plants cv. Roter Gnom are treated with the formulated test compound in a spray chamber. Two days after application tomato plants are inoculated by spraying a spore suspension on the test plants. After an incubation period of 4 days at 22° C./18° C. and 95% r. h. in a greenhouse the disease incidence is assessed.

A further series relates to Septoria Tritici. Nature of the series: Septoria tritici / wheat / preventive (leaf spot). Type of series: in vivo. Conditions: Zymoseptoria tritici, spray, wheat plants cv. Riband, assessed 16-18 days after inoculation, read-out: inhibition of fungal infestation. The method, then:
Septoria Tritici/Wheat/Preventive (Action Against Septoria Leaf Spot on Wheat) 2 weeks old wheat plants cv. Riband are treated with the formulated test compound in a spray chamber. One day after application wheat plants are inoculated by spraying a spore suspension (10^6 conidia/ml) on the test plants. After an incubation period of 1 day at 22° C./21° C. and 95% r. h. plants are kept at 22° C./21° C. and 70% r.h. in a greenhouse. The disease incidence is assessed 16-18 days after inoculation.

In the next series the test system is Botrytis Cinerea. Nature of the series: Botrytis cinerea / tomato / preventive. It counts as in vivo. To be noted: 72 h, spray, tomato plants cv. Roter Gnom, assessed 3 days after inoculation, read-out: inhibition of fungal infestation. Here is the method:
Botrytis Cinerea/Tomato/Preventive (Action Against Botrytis on Tomato) 4 weeks old tomato plants cv. Roter Gnom are treated with the formulated test compound in a spray chamber. Two days after application tomato plants are inoculated by spraying a spore suspension on the test plants. After an incubation period of 3 days at 20° C. and 95% r. h. in a greenhouse the disease incidence is assessed.

In the case of `Cc1nnc(F)c(-c2c(F)cc(F)cc2F)c1-c1ccc(Cl)cc1` [I.c.127, 4-(4-chlorophenyl)-6-fluoro-3-methyl-5-(2,4,6-trifluorophenyl)-pyridazine], the inhibition at 200 ppm (in series [1]; in the series with Uncinula Necator; with Puccinia Recondita; in series [2]; in the series with Alternaria Solani; in the series on Septoria Tritici) was no less than 80% in each case. In addition, the inhibition at 200 ppm in the series with Botrytis Cinerea was no less than 80%.
In turn, `Cc1nnc(OCC(F)(F)F)c(-c2c(F)cc(F)cc2F)c1-c1ccc(Cl)cc1` [I.c.129, 4-(4-chlorophenyl)-3-methyl-6-(2,2,2-trifluoroethoxy)-5-(2,4,6-trifluorophenyl)-pyridazine] returned a melting point of 105 to 108 °C. The inhibition at 200 ppm with Uncinula Necator was no less than 80%. Besides, the inhibition at 200 ppm with Alternaria Solani was no less than 80%. Besides, the inhibition at 200 ppm in the series with Septoria Tritici was no less than 80%.
